# In patent publication US7749969B2, “N- or C- terminally modified small peptides” (Zealand Pharma A/S, priority 2005, dated 2010):
# Square brackets hold non-standard residues; d marks the D form. Peptide text beside a SMILES is read from it. * marks the point of attachment. Bz = O=C(c1ccccc1)*
# Assays:
# [1] = system: calcium-induced arrhythmias; assay: Calcium-induced arrhythmia model (time lag to conduction block after CaCl2 infusion); type: in vivo, mouse; settings: male NMRI mice; 1 nmol/kg i.v. 3 min before CaCl2 infusion; (tarr test compound − tarr vehicle)×100/tarr vehicle
# Method: Peptides suitable for administration to cardiac cells can be identified in an in vivo model of calcium-induced arrhythmias according to the model of Lynch et al. (1981) J Cardiovasc. Pharmacol. 3:49-60. Mice (25-30 g) are anaesthetized with a neurolept anaesthetic combination and an i.v. cannula is inserted into the tail vein. A lead II ECG signal is recorded continuously by positioning a stainless steel ECG electrodes on the right forelimb and on the left hind limb. The ground electrode is placed on the right hind limb. The signal is amplified (×5.000-10.000) and filtered (0.1-150 Hz) via a Hugo Sachs Electronic model 689 ECG module. The analogue signal is digitized via a 12 bit data acquisition board (Data Translation model DT321) and sampled at 1000 Hz using the Notocord HEM 3.1 software for Windows NT. After a 10-minute equilibration period, the test sample of compound is injected into the tail vein. Mice pre-treated with buffer are tested as a measure of the control level in untreated animals. The injection volume is 100 μl in all experiments.
# Infusion of CaCl2 (30 mg/ml, 0.1 ml/min≈100 mg/kg/min (calcium chloride-2-hydrate, Riedel-de Haën, Germany)) is started 3 min after i.v. administration of drug or vehicle. The time lag to onset of 2nd degree AV-block is determined as the time from the start of CaCl2 infusion until the first arrhythmic event occurs. An event of 2nd degree AV-block is defined as intermittent failure of the AV conduction characterised by a P-wave without the concomitant QRS complex.
# Responses are expressed relative to the time until 2nd degree AV-block occurred in vehicle treated mice. The maximal effect of compounds (e.g., N- or C-terminally modified peptides of the invention, AAP, AAP10 or controls) is determined. […] Preferably, the compounds provide at least about 40% of the activity of AAP, for example at least about 50% of the activity of AAP, such as about 60% of the activity of AAP, for example at least about 70% of the activity of AAP, such as at least about 80% of the activity of AAP, for example at least about 90% of the activity of AAP, for example at least about substantially the same activity of AAP, such as about 110% of the activity of AAP, for example at least about 120% of the activity of AAP, such as at least about 130% of the activity of AAP, for example at least about 140% of the activity of AAP, such as about 150% of the activity of AAP, for example at least about 160% of the activity of AAP, such as at least about 170% of the activity of AAP, for example at least about 180% of the activity of AAP, preferably at least about 190% of the activity of AAP, more preferably at least about 200 or greater % of the activity of AAP (i.e., the compounds show time lags of approximately the same duration as induced by AAP).
# The anti-arrhythmic effect of the present compounds was tested in a model of calcium-induced arrhythmias according to the model of Lynch et al., J. Cardiovasc. Pharmacol. (1981), 3: 49-60. Male NMRI mice (25-30 grams; Bomholdtgaard, L I. Skendsved, Denmark) were anesthetized with a neurolept anesthetic combination (Hynorm® (fentanyl citrate 0.315 mg/mL and fuanisone 10 mg/mL) and midazolam at 5 mg/mL. Commercial solutions of Hynorm® and midazolam were diluted 1:1 in distilled water, and one part Hynorm® was mixed with one part diluted midazolam. Anesthesia is induced by s.c. administration of this solution in a dose of 50-75 μL/10 gram mouse.
# An intravenous cannula was inserted into the tail vein. The lead II ECG signal was recorded continuously by positioning of stainless steel ECG electrodes on the right forelimb and on the left hind limb. The ground electrode was placed on the right hind limb. The signal was amplified (×5.000-10.000) and filtered (0.1-150 Hz) via a Hugo Sachs Electronic model 689 ECG module. […]
# CYP 3A4 = CYP 3A4 (Homo sapiens, UniProt P08684); assay: Cytochrome P450 oxidase (CYP) inhibition, fluorescent probe; type: in vitro ADME; settings: recombinant human CYP isozyme 3A4
# Sequence of CYP 3A4 (P08684 whole entry): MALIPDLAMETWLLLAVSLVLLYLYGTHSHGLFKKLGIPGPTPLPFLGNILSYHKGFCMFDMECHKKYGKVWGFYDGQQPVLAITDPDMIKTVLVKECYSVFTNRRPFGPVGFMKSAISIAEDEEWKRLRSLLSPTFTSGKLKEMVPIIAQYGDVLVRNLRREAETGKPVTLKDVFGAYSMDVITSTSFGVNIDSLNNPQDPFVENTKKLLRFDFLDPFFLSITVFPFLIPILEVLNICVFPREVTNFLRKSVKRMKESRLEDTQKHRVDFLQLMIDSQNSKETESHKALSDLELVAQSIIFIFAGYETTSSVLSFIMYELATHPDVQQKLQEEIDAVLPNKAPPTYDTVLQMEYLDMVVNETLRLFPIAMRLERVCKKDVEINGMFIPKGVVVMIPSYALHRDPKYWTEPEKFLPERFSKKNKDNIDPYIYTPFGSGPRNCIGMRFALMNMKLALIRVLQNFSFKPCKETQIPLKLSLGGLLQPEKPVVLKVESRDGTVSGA
# Description: Cytochrome P450 enzymes (CYPs) constitute a superfamily of heme proteins involved in the metabolism of endogenous and exogenous compounds in living organisms. In particular, a number of CYP isozymes are important in the oxidative metabolism of drug molecules. Interactions with these enzymes could lead to altered pharmacokinetic parameters, such as half life, Cmax, or AUC of other co-administered drug molecules. To reduce this kind of interaction in vitro screening of drug candidates for inhibition of drug-metabolizing CYPs has been carried out.
# Cytochrome P oxidase (CYP) Inhibition: The compound solution is added to a mixture of recombinant human CYP isozymes, NADPH regenerating solution, buffer, and “probe” compounds for each isozyme. The degree of reduction in the rate of metabolism of the probe to a fluorescent metabolite is an indication of the potential CYP inhibition of the test compound. The CYP 450 isozyme tested is 3A4.
# [2] = PAMPA-BBB permeability test (brain lipid artificial membrane); type: in vitro ADME; settings: brain lipid 20% in dodecane; pH 7.4 buffer; 14 hr diffusion
# Description: The compounds of the invention show desirable pharmacokinetic profiles as evidenced from data obtained when testing the permeability of the compounds across a synthetic biomimetic membrane that resembles the blood brain barrier (PAMPA-BBB) and the compounds ability to inhibit the activity of cytochrome P 450 oxidase isozyme 3A4. Normally it is desirous to avoid having drugs targeting the cardiovascular systems and other non-CNS ailments such as osteoporosis being less able to cross the blood brain barrier and thus penetrate into the central nervous system.
# Permeability test: Compounds in DMSO solution are added to pH 7.4 buffer in a 96 well plate (“donor”). The buffer is placed in contact with a 96 well filter plate in which the pours have been filled with an artificial membrane (2% phosphatidyl choline in dodecane). The top wells of the filter plate are filled with aqueous buffer (“acceptor”). Compound molecules diffuse into the artificial membrane and then into the acceptor buffer. After a 14 hr diffusion experiment, the donor and acceptor wells are measured on a UV plate reader and compared to a standard. The experiment is termed “PAMPA”. Permeability-BBB: The PAMPA experiment above is repeated using brain lipid (20% in dodecane) to provide a prediction of blood-brain barrier permeation by passive diffusion.
molecule,measurement,setting,value
"NCC(=O)N[C@@H](CC(N)=O)C(=O)NCc1ccc2ccc3cccc4ccc1c2c34 [Compound 12, H-Gly-Asn-NH(pyrenylmethyl)]",% response (increase of time lag to onset of arrhythmias relative to vehicle),[1],38.0%
same,CYP450 Inhibition at 3 μM (% Inhibition) CYP 3A4,CYP 3A4,<15 % Inhibition
same,PAMPA-BBB,[2],0 10^−6 cm/s
"NC(=O)[C@H](Cc1ccc(O)cc1)NC(=O)CNC(=O)CO [Compound 2, N-(hydroxyacetyl)-Gly-Tyr-NH2]",% response (increase of time lag to onset of arrhythmias relative to vehicle),[1],48.7%
"CN(CC(=O)O)C(=O)[C@@H](N)CCCCNC(=O)c1ccc([N+](=O)[O-])cc1 [WO2004/048400 8, H-K(4-nitrobenzoyl)-Sar-OH, reference compound]",CYP450 Inhibition at 3 μM (% Inhibition) CYP 3A4,CYP 3A4,15–25 % Inhibition
"NC(=O)C[C@H](NC(=O)CS)C(=O)N[C@@H](Cc1ccc(O)cc1)C(N)=O [Compound 7, N-(thiohydroxyacteyl)-Asn-Tyr-NH2]",CYP450 Inhibition at 3 μM (% Inhibition) CYP 3A4,CYP 3A4,<15 % Inhibition
same,PAMPA-BBB,[2],0 10^−6 cm/s
"NC(=O)CNC(=O)[C@H](CC(N)=O)NC(=O)Cc1cc(=O)oc2cc(O)ccc12 [Compound 1, N-(7-hydroxycoumarin-4-acetyl)-Asn-Gly-NH2]",% response (increase of time lag to onset of arrhythmias relative to vehicle),[1],20.9%
"COCC(=O)N[C@@H](CC(N)=O)C(=O)N[C@@H](Cc1ccc(O)cc1)C(N)=O [Compound 16, (Methoxyacetyl)-Asn-Tyr-NH2]",CYP450 Inhibition at 3 μM (% Inhibition) CYP 3A4,CYP 3A4,<15 % Inhibition
same,PAMPA-BBB,[2],0 10^−6 cm/s
CC(=O)OCC(=O)N[C@@H](CC(N)=O)C(=O)N[C@@H](Cc1ccc(O)cc1)C(N)=O [Compound 8],% response (increase of time lag to onset of arrhythmias relative to vehicle),[1],16.5%
same,CYP450 Inhibition at 3 μM (% Inhibition) CYP 3A4,CYP 3A4,<15 % Inhibition
same,PAMPA-BBB,[2],0 10^−6 cm/s
"COc1ccc(CNC(=O)C[C@H](N)C(=O)N[C@H](C)C(=O)O)cc1 [WO2004/048400 80, H-Asn(4-methoxybenzyl)-DAla-OH, reference compound]",CYP450 Inhibition at 3 μM (% Inhibition) CYP 3A4,CYP 3A4,15–25 % Inhibition
"N[C@H](CCCCNC(=O)c1ccccc1)C(=O)NCC(=O)O [WO2004/048400 23, H-DLys(benzoyl)-G-OH, reference compound] (H-[dK](Bz)-Gly-OH)",CYP450 Inhibition at 3 μM (% Inhibition) CYP 3A4,CYP 3A4,15–25 % Inhibition
"N[C@@H](CCCCNC(=O)c1ccc([N+](=O)[O-])cc1)C(=O)NCC(=O)O [WO2004/048400 7, H-K(4-nitrobenzoyl)-G-OH, reference compound]",CYP450 Inhibition at 3 μM (% Inhibition) CYP 3A4,CYP 3A4,15–25 % Inhibition
"NC(=O)C[C@@H](NC(=O)Cc1cc(=O)oc2cc(O)ccc12)C(=O)NCC(=O)O [Compound 15, N-(7-hydroxycoumarin-4-acetyl)-D-Asn-Gly-OH]",% response (increase of time lag to onset of arrhythmias relative to vehicle),[1],28.5%
H-Gly-Asn-NH(4-nitrophenyl) [Compound 10],% response (increase of time lag to onset of arrhythmias relative to vehicle),[1],38.0%
same,CYP450 Inhibition at 3 μM (% Inhibition) CYP 3A4,CYP 3A4,<15 % Inhibition
same,PAMPA-BBB,[2],0 10^−6 cm/s
